Among the data in PubChem BioAssay (NCI) are TGI and GI50 values, retold here.

Values joined by “and” are separate entries in the source; they are usually repeats but may differ in a detail not shown here. Equal values may be shown once.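 These data come from cells grown in 96-well plates and exposed to compound for 48 hours at five concentrations. GI50 = concentration required for 50% inhibition of growth. At the TGI there is no net growth.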

Some test systems named below: SF-539 CNS; HT29 colon; EKVX NSCLC; TK-10 renal; SNB-75 CNS; A498 renal; SNB-19 CNS; KM12 colon; OVCAR-4 ovarian.
What all share (assay): NCI anticancer screen, dose series, 48 h

With `O=C(O/N=C1/CCCC/C1=C\c1ccccc1)c1ccccc1`, the TGI was > 100 µM with SF-539 CNS; > 100 µM with HT29 colon; > 100 µM in the test with EKVX NSCLC; > 100 µM in the test on TK-10 renal; > 100 µM with SNB-75 CNS; 0.514 µM in the test with A498 renal. The TGI in the test on SNB-19 CNS and in the test on KM12 colon was > 100 µM throughout.

As to `CC(=O)Nc1ccc(C(=O)NN2C(=O)C(Cl)C2c2ccccc2)cc1` (stereo unspecified), the TGI in the test on SF-539 CNS, with HT29 colon, with EKVX NSCLC, in the test on OVCAR-4 ovarian, with TK-10 renal and with SNB-75 CNS was > 100 µM each time. Besides, the TGI in the test on A498 renal and in the test with SNB-19 CNS was > 100 µM throughout.

For the compound `O=C1OC(c2ccccc2)=N/C1=C/C=C/c1ccco1`, the TGI with SF-539 CNS, with HT29 colon, in the test on EKVX NSCLC, with OVCAR-4 ovarian, in the test with TK-10 renal and with SNB-19 CNS was > 100 µM throughout. Further, the TGI in the test on KM12 colon was > 100 µM.

Regarding `O=[N+]([O-])c1nccn1CC(O)c1ccc(F)cc1` (stereo unspecified), the TGI in the test with SF-539 CNS, with HT29 colon, in the test with EKVX NSCLC, with OVCAR-4 ovarian, in the test with TK-10 renal and with SNB-75 CNS was > 100 µM in each case. Besides, the TGI in the test on A498 renal, with SNB-19 CNS and in the test with KM12 colon was > 100 µM each time.

As to `CCOC(=O)Oc1c(OC)cc(C(=O)NC2CCc3cc(OC)c(OC)c(OC)c3-c3ccc(SC)c(=O)cc32)cc1OC` (stereo unspecified), the GI50 was < 0.007 µM in the test on SF-539 CNS; 14.8 µM in the test with OVCAR-4 ovarian; 0.163 µM in the test on TK-10 renal; < 0.007 µM in the test on SNB-75 CNS; 0.0206 µM with A498 renal; 0.0235 µM with SNB-19 CNS. In addition, in the test on KM12 colon, the GI50 is < 0.007 µM. Besides, the TGI is 0.057 µM and 0.00743 µM with SF-539 CNS; 0.489 µM in the test on HT29 colon; 37.9 µM with EKVX NSCLC; > 70 µM in the test on OVCAR-4 ovarian; > 70 µM with TK-10 renal; < 0.007 µM in the test with SNB-75 CNS. For the same compound, the TGI in the test on A498 renal was 0.514 µM and 0.0622 µM; with SNB-19 CNS, 53.6 µM.

In the case of `C=C(CCCCC)CN1CCCC1[C@@](C)(O)CC(=O)OCC` (stereo partly specified), the TGI with SF-539 CNS, in the test on HT29 colon, in the test on EKVX NSCLC, in the test on OVCAR-4 ovarian, in the test with TK-10 renal and with SNB-75 CNS was > 100 µM throughout. Moreover, the TGI with A498 renal, with SNB-19 CNS and in the test with KM12 colon was > 100 µM throughout.

On to `COC(=O)c1cc2c3ccccc3n(C(C)=O)c2cn1`, for which the TGI in the test on SF-539 CNS, in the test with HT29 colon, in the test with EKVX NSCLC, with OVCAR-4 ovarian, with TK-10 renal and in the test with SNB-75 CNS was > 100 µM each time. Besides, the TGI in the test on SNB-19 CNS and in the test on KM12 colon was > 100 µM each time.

Consider `O=C1c2ccccc2C(=O)C1(Cl)C1(S(=O)(=O)O)c2ccccc2-c2ccccc21`, for which the TGI with SF-539 CNS, in the test on HT29 colon, with OVCAR-4 ovarian, in the test on TK-10 renal, in the test on SNB-75 CNS and with A498 renal was > 100 µM each time. The TGI with KM12 colon was > 100 µM.

Turning to `Cc1ccc(SC(C)/C=C/NNC2=NC(c3ccccc3)C(c3ccccc3)=NN2)cc1` (stereo unspecified), the TGI with SF-539 CNS is > 100 µM; in the test on HT29 colon, 27.3 µM; with EKVX NSCLC it was > 100 µM; in the test on OVCAR-4 ovarian, > 100 µM; with TK-10 renal it was > 100 µM; with SNB-75 CNS, > 100 µM. Further, the TGI with A498 renal and in the test on KM12 colon was > 100 µM each time.

Turning to `COC(=O)C(C(=O)C(=O)Nc1cccc(OC)c1)c1cnc2ccccc2n1` (stereo unspecified), the TGI in the test with SF-539 CNS, with HT29 colon, in the test on EKVX NSCLC, with OVCAR-4 ovarian, in the test with TK-10 renal and in the test on SNB-75 CNS was > 100 µM in each case. The TGI in the test on A498 renal, with SNB-19 CNS and in the test on KM12 colon was > 100 µM in each case.

As to `Cc1ccccc1N1C(=O)/C(=C/c2ccc(N(CCC#N)CCC#N)cc2)N=C1c1cc([N+](=O)[O-])ccc1Cl`, the TGI in the test with SF-539 CNS, in the test with HT29 colon, in the test on OVCAR-4 ovarian, in the test with SNB-75 CNS, in the test with A498 renal and in the test on SNB-19 CNS was > 100 µM throughout. Further, the TGI with KM12 colon was > 100 µM.

On to `CCCCOC(=O)C1C(c2ccc(Cl)cc2)NC(c2ccc(Cl)cc2)C(C(=O)OCCCC)S1(=O)=O` (stereo unspecified), for which the TGI in the test with SF-539 CNS, in the test with HT29 colon, in the test with EKVX NSCLC, in the test with OVCAR-4 ovarian, in the test on TK-10 renal and with SNB-75 CNS was > 100 µM throughout. Besides, the TGI in the test on A498 renal, in the test with SNB-19 CNS and with KM12 colon was > 100 µM in each case.

On to `COc1ccc(C2S/C(=C\c3ccccc3O)C(=O)N2NC(=O)Cc2ccccc2)cc1` (stereo unspecified), for which the TGI in the test on SF-539 CNS, in the test on HT29 colon, in the test with OVCAR-4 ovarian, in the test on TK-10 renal, in the test on SNB-75 CNS and in the test with A498 renal was > 100 µM in each case. For the same compound, the TGI with KM12 colon was > 100 µM.

Regarding `COc1ccc(OC)c(NC(=O)C(=O)NNC(=O)c2sc(NNC(C)=O)nc2C)c1`, the TGI with SF-539 CNS is 82.3 µM; in the test on HT29 colon, > 100 µM; with EKVX NSCLC it was > 100 µM; in the test on OVCAR-4 ovarian, 71.2 µM; in the test with TK-10 renal, > 100 µM; with A498 renal, 52.1 µM. The TGI in the test with SNB-19 CNS and with KM12 colon was > 100 µM in each case.

As for `CCCCN(CCCC)CC(C(=O)Nc1ccc([N+](=O)[O-])cc1[N+](=O)[O-])/C(C)=N\NC(=S)NN` (stereo unspecified), the TGI with SF-539 CNS, with HT29 colon, in the test with EKVX NSCLC, in the test on TK-10 renal, in the test with SNB-75 CNS and with A498 renal was > 100 µM each time. Moreover, the TGI in the test with KM12 colon is > 100 µM.
